Results published in article PMC5507927, “Lybatides from Lycium barbarum Contain An Unusual Cystine-stapled Helical Peptide Scaffold” (Scientific Reports, 2017).
Positions of bridges follow the written chain, without caps; N, C: chain ends. Residues, ends and D or L forms follow the SMILES beside them.

What was measured:
trypsin = assay: Enzymatic stability with trypsin (RP-HPLC profile against control); assay type: in vitro ADME; conditions: trypsin (1 μL of 0.5 μg/μL), 37 °C, 10 μg peptide in 100 μL 100 mM ammonium bicarbonate buffer pH 7.8, RP-HPLC profile compared with control without trypsin, read-out: peptide not degraded when incubated with trypsin
Protocol: CRPs with a well-defined disulfide core are known for their compact structure and high resistance to heat and enzymatic degradation. This stability is an important characteristic for CRPs as putative bioactive peptides in order for them to survive decoction processes in traditional herbal preparations and to retain both bioavailability and pharmacological effects by oral administration. […] A total of 96% of lyba1 remained after heating in boiling water at 100 °C for 2 h. Similarly, 99% of the peptide remained intact after incubation in 2 M HCl for 3 h, and 99% of the peptide was not degraded when incubated with trypsin for 3 h (Fig. 5).
Figure 5 Stability assays of lybatide, lyba1. (A) Thermal stability of lyba1 incubated at 100 °C for 2 h. (B) Acidic condition stability of lyba1 incubated in 2.0 M HCl […] for […]. […] (D) Stability of lyba1 incubated in human serum for 60 min at 37 °C, DALK was used as a control. The molecular weight of the peak was determined by MALDI-MS. TEXT PRINTED IN THE PICTURE: (A) lyba1: Cald.: 3509; Found: 3509 | (B) lyba1: Cald.: 3509; Found: 3509 | (C) lyba1: Cald.: 3509; Found: 3509 DOUBTS OF THE COPYIST ABOUT THIS PICTURE: lyba1, panels A-C: 'Cald.' and 'Found' are printed with no measure or unit. I took them as molecular weight, but they may be only mass-spectrometric peak identification. […]

[1] = test system: human umbilical vein endothelial cells (HUVEC-CS, ATCC CRL-2873); assay: MTT cell toxicity assay; assay type: cell-based; conditions: overnight incubation, tested up to 100 μM (method section: 0.01-10 μM)
Protocol: (§1) Many CRPs including defensins, thionins and hevein-like peptides display antimicrobial or cytotoxic activity.
(§2) Lybatide lyba1 was tested for its cytotoxicity effect against human umbilical vein endothelial cells (HUVEC-CS, ATCC CRL-2873), monkey kidney epithelial cells (Vero, ATCC CCL-81) and adenocarcinomic human alveolar basal epithelial cells (A549, ATCC CCL-185). Briefly, 1 × 10^4 cells per well in 100 μL were seeded into a 96-well plate (TPP, Switzerland) and incubated overnight. The supernatant was removed, and the cells were washed twice with phosphate buffered saline (PBS; Gibco, USA). The cells were then treated with lyba1 at concentrations 0.01 μM, 0.1 μM, 1 μM, and 10 μM and incubated overnight, with 10% DMSO used as positive control.
(§3) After incubation, MTT was added to the wells and the plate was incubated for 1.5 h at 36.7 °C. Next, 200 μL of 100% DMSO was added, incubated for 2 h, and the absorbance was determined with a microplate reader at 550 nm wavelength.

[2] = test system: monkey kidney epithelial cells (Vero, ATCC CCL-81); assay: MTT cell toxicity assay; assay type: cell-based; conditions: overnight incubation, tested up to 100 μM (method section: 0.01-10 μM)
Protocol: as §1, §2, §3

[3] = test system: adenocarcinomic human alveolar basal epithelial cells (A549, ATCC CCL-185); assay: MTT cell toxicity assay; assay type: cell-based; conditions: overnight incubation, tested up to 100 μM (method section: 0.01-10 μM)
Protocol: as §1, §2, §3

Structure (SMILES): CC[C@H](C)[C@@H]1NC(=O)[C@@H]2CSSC[C@H](NC(=O)[C@H](CO)NC(=O)[C@@H](N)CC(=O)O)C(=O)N[C@@H](CO)C(=O)N[C@@H](CCC(=O)O)C(=O)N[C@@H](Cc3ccc(O)cc3)C(=O)N[C@H]3CSSC[C@@H](C(=O)N4CCC[C@H]4C(=O)N[C@@H](CO)C(=O)O)NC(=O)[C@H](CSSC[C@H](NC(=O)[C@H](CO)NC(=O)[C@H](CC(N)=O)NC(=O)[C@H](CC(N)=O)NC(=O)[C@H](CO)NC3=O)C(=O)N3CCC[C@H]3C(=O)N[C@@H](Cc3ccc(O)cc3)C(=O)N[C@H]3CSSC[C@H](NC(=O)[C@H](CC(C)C)NC(=O)[C@H]([C@@H](C)O)NC(=O)[C@H](Cc4ccc(O)cc4)NC(=O)[C@H](CC(C)C)NC(=O)[C@H](CCCCN)NC(=O)[C@H](CCC(N)=O)NC(=O)CNC(=O)[C@H](CC(=O)O)NC3=O)C(=O)N2)NC(=O)[C@H]([C@@H](C)O)NC(=O)[C@H](CC(N)=O)NC1=O [lyba1] (H-DSCSEYCSNNSCPYCDGQKLYTLCCINTCCPS-OH; disulfide 3-25, 7-30, 12-29, 15-24)
- remaining at 3 h, 100 µg/mL (trypsin): 99%
- cytotoxic effect [1]: did not display any cytotoxic effect
- cytotoxic effect [2]: did not display any cytotoxic effect
- cytotoxic effect [3]: did not display any cytotoxic effect
